In ChEMBL document CHEMBL1156829 (Proc Natl Acad Sci U S A, 2008):

Experiments:
[1] = NOVARTIS: Cytotoxicity against human hepatocellular carcinoma cell line (Huh7); format: toxicity, cell-based, Huh-7; conditions: Huh7 cells (hepatocellular carcinoma cell line)
Plasmodium falciparum [2] = experiment: NOVARTIS: Inhibition of Plasmodium falciparum 3D7 (drug-susceptible) proliferation in erythrocyte-based infection assay; format: functional, organism-based; conditions: Plasmodium falciparum, 3D7
Plasmodium falciparum [3] = experiment: NOVARTIS: Inhibition of Plasmodium falciparum W2 (drug-resistant) proliferation in erythrocyte-based infection assay; format: functional, organism-based; conditions: Plasmodium falciparum, W2; read-out: EC50

| SMILES | CC50 [1] [µM] | EC50 (Plasmodium falciparum [2]) [nM] | EC50 (Plasmodium falciparum [3]) [nM] |
| --- | --- | --- | --- |
| CC(CCc1ccccc1)N1CC(c2cccc([N+](=O)[O-])c2)OC1=S (centres undefined) | 32.8 | 307 | 18 |
| Cc1cc(C)cc(NCC(O)Cn2c3ccc(Cl)cc3c3cc(Cl)ccc32)c1 (centres undefined) | 31.2 | 2220 | 569 |
| CN(CCCNc1ccnc2cc(Cl)ccc12)C(=O)C(C)(C)CCl | > 10 | 94.9 | 192 |
| Cc1ccn2c(NC(C)(C)CC(C)(C)C)c(-c3ccccc3OC(=O)C(C)(C)CCl)nc2c1 | > 10 | 699 | 76.3 |
| COc1ccc(-c2nc(CN3CCCCC3)ccc2O)cc1 | > 10 | 131 | 30 |
| COc1ccc(-n2nc([N+](=O)[O-])c(Nc3ccc([N+](=O)[O-])cc3C)[n+]2[O-])cc1 | > 100 | 1300 | 320 |
| CC(C)CC1C(c2ccc(Cl)cc2)C(C(=O)c2ccccc2)C2(C(=O)Nc3ccc(Br)cc32)N1C(=O)NCc1ccccc1 (centres undefined) | > 10 | 775 | > 1020 |
| COc1ccc(N2C(=O)c3cccnc3C2=O)cc1 | > 10 | 1980 | 665 |
| Cc1ccc(NC(=O)c2sc3nc4c(c(-c5cccs5)c3c2N)CCCC4)cc1 | > 100 | 442 | 2220 |
| Cn1c(-c2ccc([N+](=O)[O-])cc2)[n+](C)c2ccccc21 | > 100 | 1310 | 376 |
| COc1ccc(C)cc1Nc1nc(N)c2cc(OC)c(OC)cc2n1 | > 10 | 973 | 2040 |
| CCc1ccc(C(=O)Oc2ccccc2-c2nc3ccccn3c2NC(C)(C)CC(C)(C)C)cc1 | > 10 | 1760 | 259 |
| CN1CCN(c2ccc(Nc3ccnc4cc(Cl)ccc34)cc2Cl)CC1 | > 23.7 | 35.8 | 54.7 |
| CN(C)CC(C)(C)CNCc1cc(-c2ccccc2)ccc1O | 38 | 66.1 | 6.53 |
| CCc1c(C)c(C#N)c2nc3ccccc3n2c1NCc1ccccc1 | > 100 | 787 | 238 |
| Cc1noc(C)c1S(=O)(=O)N(Cc1ccccc1)CC(O)CN1CCC(NC(=O)Cc2cccs2)C1 (centres undefined) | > 10 | 175 | 141 |
| O=[N+]([O-])c1ccc(C=NNc2nc(Nc3ccccc3)nc(Nc3ccccc3)n2)o1 | 20.7 | 625 | 454 |
| C(#Cc1ccccc1)C[N+]1(CCOc2ccccc2)CCCCC1 | > 100 | 1440 | 981 |
| COc1cc(NCc2cnc(N)nc2N)cc(OC)c1 | > 10 | 330 | 99.2 |
| CCOC(=O)C1=C(c2ccccc2)N=c2sc(=Cc3cc(C)n(-c4ccc(F)cc4)c3C)c(=O)n2C1c1cccc(OC)c1OC (centres undefined) | > 100 | 2320 | 2280 |
| CCOC(=O)c1cnc2c(C)c3[nH]c(C)c(C)c3cc2c1O | > 10 | > 1310 | 1070 |
| O=C(Nc1ccc(-c2nc3ccc(NC(=O)c4cccc5ccccc45)cc3[nH]2)cc1)c1cccc2ccccc12 | > 10 | 1430 | 1920 |
| CC(C)(CCl)C(=O)NCCCCNc1ccnc2cc(Cl)ccc12 | > 11.3 | 386 | 361 |
| CCCN1CCC(c2nc(N3CCOCC3)ncc2-c2cc(C)no2)CC1 | > 10 | > 433 | > 1250 |
| CC(c1nc2ccccc2c(=O)n1-c1ccccc1Cl)N(Cc1ccccc1)C(=O)Nc1cccc(Br)c1 (centres undefined) | > 10 | > 1250 | > 159 |
| CC(=O)N1c2ccccc2C(C)(c2ccc(Br)cc2)CC1(C)C (centres undefined) | 71.4 | 4270 | 2420 |
| Cc1cc(Nc2ccc(N(C)C)cc2)n2ncnc2n1 | > 100 | 6000 | 2270 |
| Cc1nc(N2CCCCC2)c2c(C)c(C(=O)N3CCN(c4cccc(Cl)c4)CC3)sc2n1 | > 100 | > 12500 | 319 |
